Test [1] deals with Hh pathway (Gli-responsive firefly luciferase reporter). The experiment in a line: Hh-dependent Gli-luciferase reporter assay in SAG-treated NIH3T3 Shh-Light II cells. As to conditions: SAG (200 nM)-treated NIH3T3 Shh-Light II cells, 48 h, normalized to Renilla; N.A. = Not Active. The class given is cell-based. As to the method: The inhibitory properties of the potential Smo antagonists 1–17 were investigated in a luciferase reporter assay that is widely used for characterizing Hh inhibitors. NIH3T3 Shh-Light II cells, stably incorporating a Gli-responsive firefly luciferase reporter (Gli-RE),[25] were treated with the synthetic Smo agonist SAG[24] alone or in combination with the selected small molecules to evaluate their dose–response ability to suppress Hh pathway. […] We excluded the possibility that inhibition activity in this assay was mediated by cytotoxicity because no decrease was shown in the luciferase assay control Renilla as observed instead for 13–17.
The luciferase assay was performed in Shh-Light II cells, stably incorporating a Gli-responsive luciferase reporter and the pRL-TK Renilla (normalization control), treated for 48 h with SAG (200 nM) and the studied compounds. Luciferase and Renilla activity were assayed with a dual-luciferase assay system according to the manufacturer's instruction (Biotium Inc., Hayward, CA, USA). Results are expressed as luciferase/Renilla ratios and represent the mean±S.D. of three experiments, each performed in triplicate.
In general terms: A reporter such as luciferase makes a cellular process visible.

In the next test the test system is AP1/Jun pathway. The test can be described thus: AP1/Jun luciferase reporter assay (MMP1-luciferase reporter and c-Jun) in MEFs WT. It is filed as cell-based, mouse. As to conditions: increasing concentrations, 24 h. As to the method: Figure 2 Compound 12 inhibits Hh signaling without affecting AP1/Jun and WNT/β-Catenin pathways. (a) The graphs show the Hh target genes expression levels in Ptch1^−/− MEFs treated for 48 h with 12 or DMSO as control. mRNA levels were determined by quantitative real-time PCR (qRT-PCR) normalized to endogenous control (β2-microglobulin and HPRT). Pfkfb3 gene was used as negative control. *P<0.05 versus CTR. (b and c) AP1/Jun and WNT/β-Catenin pathways activity were assayed in MEFs WT transfected with MMP1-luciferase reporter and c-Jun (b) or Top Flash-luciferase reporter and β-Catenin (c), respectively, in the presence or absence of increasing concentrations of compound 12. Treatment time was 24 h, and normalization was against Renilla luciferase.

Test [2] concerns cerebellar granule cell progenitors (GCPs). The test can be described thus: BrdU proliferation assay in SAG-treated cerebellar granule cell progenitors. It is filed as cell-based, mouse. As to conditions: SAG + compound at 5 and 10 μM, 48 h. The source says: (§1) Hh signaling is a critical regulator of cerebellum development controlling the proliferation of granule cell progenitors (GCPs) under Purkinje cell-derived Shh stimuli. Withdrawal of Hh signal, occurring physiologically after the first post-natal week in mice,[54] causes cell growth arrest and induces their differentiation into mature granules.[55] Importantly, genetic and epigenetic alterations in the Hh pathway are responsible for the lack of GCPs proliferation arrest, leading to the tumorigenic conversion of these progenitors, considered as the cell of origin of MB.[56], [57] To investigate the biological effects of 12, we first tested its ability to suppress Hh-dependent growth in 4-day-old mouse cerebellar progenitors.
Figure 4 Compound 12 inhibition of Hh-dependent growth of cerebellum granule cell progenitors. […] (a) Inhibition of cell proliferation was measured as percentage of BrdU incorporation in comparison with SAG-treated sample. […] (c) qRT-PCR analysis show Hh and proliferation targets mRNA expression levels determined in GCPs culture derived from 4-day-old mouse cerebella treated with SAG alone or in combination with compound 12 at 5 and 10 μM concentrations for 48 h. […]
Cell proliferation was evaluated by BrdU detection (Roche, Welwyn Garden City, UK). […] At least 500 nuclei were counted in triplicate, and the number of BrdU-positive nuclei was recorded. […]

Test [3] deals with Hh target genes and growth markers in GCPs. The experiment in a line: qRT-PCR of Hh and proliferation targets in SAG-treated GCPs. The class given is cell-based, mouse. As to conditions: SAG + compound at 5 and 10 μM, 48 h.
From the text: as §1
Figure 4 Compound 12 inhibition of Hh-dependent growth of cerebellum granule cell progenitors. (a and b) BrdU assay in cerebellar granule cell progenitors (GCPs). GCPs isolated from 4-day-old mice were treated with SAG alone or in combination with compound 12 at 5 and 10 μM concentrations for 48 h. (a) Inhibition of cell proliferation was measured as percentage of BrdU incorporation in comparison with SAG-treated sample. […] (c) qRT-PCR analysis show Hh and proliferation targets mRNA expression levels determined in GCPs culture derived from 4-day-old mouse cerebella treated with SAG alone or in combination with compound 12 at 5 and 10 μM concentrations for 48 h. […]
In general terms: In qPCR the cycle at which signal appears reflects the starting amount.

A further test deals with Gli1 mRNA. The experiment in a line: Gli1 mRNA (qRT-PCR) in primary MB cells from Ptch1+/− mice. It is filed as cell-based, mouse. As to conditions: ex vivo cultures from Ptch1^+/− mice MBs. As to the method: Total RNA was isolated with Trizol (Invitrogen/Life Technologies, Carlsbad, CA, USA) and reverse transcribed with SensiFAST cDNA Synthesis Kit (Bioline Reagents Limited, London, UK). Quantitative real-time PCR (Q-PCR) analysis of Gli1, Gli2, Ptch1, Bmp2, Pfkfb3, CycD1, CycD2, Pcna, Oct4, Nanog, β-2 microglobulin, β-actin and HPRT mRNA expression was performed on each cDNA sample using the VIIA7 Real Time PCR System employing Assay-on-Demand Reagents (Life Technologies).

Another test has as its system ASZ001 BCC cells. The experiment in a line: Trypan blue growth count of ASZ001 BCC cells. The class given is cell-based, mouse. As to conditions: compared with Cyclopamine, Vismodegib and LDE-225. As to the method: After the indicated times, a trypan blue count was performed to determine the growth rate.
Cell proliferation was evaluated by BrdU detection (Roche, Welwyn Garden City, UK). Briefly, after the BrdU pulse (24 h for GCPs) cells were fixed with 4% paraformaldehyde and permeabilized with 0.2% Triton X-100, and BrdU detection was performed according to the manufacturer's instructions. Nuclei were counterstained with Hoechst reagent. At least 500 nuclei were counted in triplicate, and the number of BrdU-positive nuclei was recorded. To determine the growth rate of viable cells, a trypan blue count was performed after a treatment period of 24–48–72 h with studied compound.

“Also recorded” adds a separate entry of the source.

What is called IC50 is the concentration at which inhibition is half-maximal.

For `COc1ccc(C=CC(=O)c2cc(OC)c(OC)cc2OC)cc1OC` [Compound 12, 3-(3,4-dimethoxy-phenyl)-1-(2,4,5-trimethoxy-phenyl)-2-propen-1-one], the IC50 in test [1] came out at 4.44 µM. For the same compound, the “luciferase activity driven by Jun/AP1 signaling” value in the test with AP1/Jun pathway is “without affecting luciferase activity; also recorded: inactive”. The “BrdU uptake / proliferation rate of GCPs” value in test [2] is given as “reduced significantly”. The “mRNA levels of Hh target genes and cell growth markers (Gli1, Gli2, Ptch1, Pcna, cyclin D2)” value in test [3] is on record as “reduced mRNA levels”. The “Gli1 mRNA levels in primary MB cells” value in the test with Gli1 mRNA is recorded as “decrease of Gli1 mRNA levels”. In addition, in the test on ASZ001 BCC cells, the “ASZ001 BCC cell growth in vitro” value was “significant efficacy to impair ASZ001 BCC cell growth”.

(Values after article PMC5059851, “Inhibition of Hedgehog-dependent tumors and cancer stem cells by a newly identified naturally occurring chemotype” (Cell Death & Disease, 2016).)
